Data on 11 compounds can be found in patent publication US20230167101A1, “NOVEL INHIBITORS OF HISTONE […] P300/CBP FOR CANCER THERAPY” (BAYLOR COLLEGE OF MEDICINE, priority 2020, published 2023).

For orientation: IC50 means the concentration at which inhibition is half-maximal.

One experiment addresses T1, HAT domain of human p300 (Homo sapiens, UniProt Q09472).
T1 construct: The HAT domain (1195-1673) of human p300 was cloned, inserted into pGEX-KG vector; made in house; host or cells: E. coli BL21-CodonPlus
T1 sequence (Q09472 1195-1673): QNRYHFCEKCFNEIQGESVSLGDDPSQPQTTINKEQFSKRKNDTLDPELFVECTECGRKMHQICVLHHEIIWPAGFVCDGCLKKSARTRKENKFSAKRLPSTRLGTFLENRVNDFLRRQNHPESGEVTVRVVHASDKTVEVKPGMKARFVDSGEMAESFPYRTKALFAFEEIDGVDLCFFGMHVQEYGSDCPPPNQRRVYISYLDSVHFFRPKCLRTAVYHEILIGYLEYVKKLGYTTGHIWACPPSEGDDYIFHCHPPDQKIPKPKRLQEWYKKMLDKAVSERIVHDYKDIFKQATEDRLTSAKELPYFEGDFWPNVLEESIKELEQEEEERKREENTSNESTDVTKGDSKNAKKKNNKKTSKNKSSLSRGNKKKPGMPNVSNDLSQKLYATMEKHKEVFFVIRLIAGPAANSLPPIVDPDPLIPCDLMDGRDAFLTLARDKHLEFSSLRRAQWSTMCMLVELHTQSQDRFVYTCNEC
The experiment in a line: p300 HAT inhibition assay (3H-Ac-CoA, histone H3 (1-21) peptide). Format: biochemical.
Conditions: not given
The method, then: A biochemical assay to determine the activity and inhibition of recombinant HAT domain of human p300 was developed, using the substrate histone H3 (1-21) peptide and the ^3H-labeled cofactor Ac—CoA.
The HAT domain (1195-1673) of human p300 was cloned, inserted into pGEX-KG vector and the DNA sequence was verified by sequencing. The p300-HAT expression plasmid was transformed into E. coli BL21-CodonPlus strain (Agilent) and cultured at 37° C. in LB medium containing ampicillin (50 µg/mL) and chloramphenicol (34 µg/mL). After the optical density of the bacterial culture reached ~0.9 at 600 nm, p300 HAT expression was induced by adding 300 µM isopropylthiogalactoside (IPTG) at 18° C. for 48 hours. Cells were collected, lysed, centrifuged for 20 min at 20,000 rpm. The supernatant was subjected to column chromatography with glutathione sepharose resins. […] CBP, PCAF and Myst3 HATs were obtained using similar methods.
To determine inhibitory activity, a compound with concentrations ranging from 100 nM to 10 µM was incubated with p300-HAT (10 nM) in 20 µL of 50 mM phosphate buffer (pH = 7.0) containing 0.01% Brij-35 for 10 min at 25° C. […] After 30 min at 25° C., the reaction was stopped by adding 6 N formic acid (5 µL). 20 µL of reaction mixture was then transferred to a small piece of P81 filter paper (Whatman) that binds histone H3 peptide. The filter paper was washed 3x with 50 mM NaHCO3, dried, and transferred into a scintillation vial containing 2 mL of scintillation cocktail. Radioactivity on the filter paper was measured with a Beckman LS-6500 scintillation counter. IC50 values were obtained by using a standard sigmoidal dose response curve fitting in Prism (version 5.0, GraphPad Software, Inc., La Jolla, CA). IC50 values were the mean values from at least three experiments.
For `CC(C)(C)c1ccc(-c2cc(COCC3CCNCC3)sc2-c2ccc(C(C)(C)C)cc2)cc1` [Compound 13], the “inhibitory activity against p300 HAT (in words)” value was “complete loss of inhibitory activity”. On the same count and under the same terms, the same measure for `CCCCc1ccc(-c2cc(CNCC3CCNCC3)sc2-c2ccc(CCCC)cc2)cc1` [Compound 23]: “Loss of activity”.

Staying with this experiment, now noted: p300 HAT.
Turning to `CC(C)(C)c1ccc(-c2cc(CNCCC3CCNCC3)sc2-c2ccc(C(C)(C)C)cc2)cc1` [Compound 15], the “activity reduction relative to compound 12” value is roughly 3 fold.

Regarding `CC(C)c1ccc(-c2cc(CNCC3CCNCC3)sc2-c2ccc(C(C)C)cc2)cc1` [Compound 22], the “activity reduction relative to compound 12” value is recorded as ~ 8 x.

The same experiment, now with this note: read-out: IC50 against p300 HAT.
Consider `CC(C)(C)c1ccc(-c2cc(C(=O)NCC3CCNCC3)sc2-c2ccc(C(C)(C)C)cc2)cc1` [Compound 1], for which the IC50 is 8.6 µM.

As for `c1cc(-c2ccc(-c3cc(CNCC4CCNCC4)sc3-c3ccc(-c4ccoc4)cc3)cc2)co1` [Compound 11], the IC50 was determined as 1.7 µM.

Consider `CC(C)(C)c1ccc(-c2cc(CNCCC3CCNCC3)sc2-c2ccc(C(C)(C)C)cc2)cc1` [Compound 15], for which the IC50 was found to be 2.2 µM.

Consider `CC(C)(C)c1ccc(-c2cc(CNCCCN)sc2-c2ccc(C(C)(C)C)cc2)cc1` [Compound 16], for which the IC50 came out at 3 µM. As for `CN(Cc1cc(-c2ccc(C(C)(C)C)cc2)c(-c2ccc(C(C)(C)C)cc2)s1)CC1CCNCC1` [Compound 20], the IC50 came out at 4.4 µM.

Take `CC(C)(C)c1ccc(-c2cc(CN(C=O)CC3CCNCC3)sc2-c2ccc(C(C)(C)C)cc2)cc1` [Compound 21]: the IC50 amounted to 7 µM.

Turning to `CC(C)c1ccc(-c2cc(CNCC3CCNCC3)sc2-c2ccc(C(C)C)cc2)cc1` [Compound 22], the IC50 worked out at 5.4 µM. Consider `CC(C)(C)c1ccc(-c2cc(CNCC3CCNCC3)oc2-c2ccc(C(C)(C)C)cc2)cc1` [Compound 34], for which the IC50 was determined as 9.8 µM.

Another experiment has as its system Kasumi-1 leukemia cells. In words: Cellular histone acetylation, Western blot. Type of experiment: cell-based. Conditions: Kasumi-1 cells, 12 h, 5 and 10 µM. The method, then:
Kasumi-1 leukemia cells were treated with increasing concentrations of these compounds for 12 h. Histone was extracted and subjected to electrophoresis separation and Western blot staining to determine levels of acetylation at various lysine residues. […] H3K27 seems to be the most sensitive cellular substrate of p300 HAT. […] This might be due to different mode of inhibition or cell permeability for the two compounds.
About 10^6 Kasumi-1 cells per well were incubated with compound 11 at 0, 5 and 10 µM for 12 hours. Histone proteins were extracted using EpiQuik total histone extraction kit (Epigentek), according to the manufacturer’s protocol. Equal amounts of histones (2 µg) were separated on SDS-PAGE and transferred to PVDF membranes. The blots were probed with primary antibodies against H3K9Ac, H3K18Ac, H3K27Ac and H3 (Cell Signaling), followed by anti-rabbit IgG (Thermo Scientific) secondary antibodies.
Background: Immunoblotting shows a protein as a band on a membrane.
As to `CC1=NN(c2ccc(C(=O)O)cc2)C(=O)/C1=C\c1ccc(-c2cc(C)c(C)cc2[N+](=O)[O-])o1` [Compound C646, reference compound], the “cellular acetylation of histone H3K9, H3K18 and H3K27” value was “inhibited”.
